Test results as given in patent US12152038B2, “Vasopressin receptor antagonists and products and methods related thereto” (Neumora Therapeutics, Inc., priority 2017, dated 2024).

Assays:
[1] = target: T1, human Arginine Vasopressin Receptor V2 (AVPR2) (Homo sapiens, UniProt P30518); experiment: Vasopressin V2 receptor antagonist assay (TR-FRET cAMP, 1321N1 cells); format: cell-based
T1 construct: host or cells: 1321N1 (cAMPZen V2 assay ready frozen cells)
Description: The purpose of the assay was to determine the inhibitory effect of synthesized compounds on the Vasopressin receptor 2. The assay was performed in commercially available 1321N1 cells expressing the human Arginine Vasopressin Receptor V2 (AVPR2) (Perkin Elmer #ES-363-CF). Arginine Vasopressin (AVP) evokes an increase in intracellular cAMP in these cells which is measured in a TR-FRET assay using a Europium cAMP tracer and ULight labelled antibody reagents contained in a LANCE Ultra cAMP kit (Perkin Elmer #TRF0263). Increases in cAMP in the assay result in a reduction in TR-FRET as the cAMP produced by the stimulated cells competes with the Eu-cAMP tracer for binding sites on the ULight labelled antibody. Test compounds were assessed for their ability to affect the magnitude of the response to AVP, with antagonists showing a concentration-dependent decrease in the AVP-mediated reduction in TR-FRET signal.
cAMPZen V2 assay ready cells were thawed at 37° C. and resuspended directly from frozen in 9 ml growth medium consisting of DMEM supplemented with 10% v/v fetal bovine serum, 1× non-essential amino acids, and 1 mM sodium pyruvate. Cells were spun at 1000 rpm for 3 minutes and the supernatant was carefully removed and discarded. The pellet was resuspended in 5 ml stimulation buffer and the cell density determined using the Vi-Cell automated cell counter. The cell suspension was diluted to a 0.2×10^6/ml suspension ready for plating. To all wells of a white 384-well Optiplate (Perkin Elmer #6007299) 5 μL of cells in stimulation buffer were dispensed (1,000 cells per well). Stimulation buffer consisted of HBSS (+Ca/+Mg) supplemented with 5 mM HEPES, 0.1% BSA stabiliser and 0.5 mM IBMX.
At the start of each assay day the potency of AVP was assessed and an EC80 concentration determined for subsequent compound profiling. Assays were performed by first an addition of 2.5 μl of control or test compound at 4× final concentration in stimulation buffer followed by 2.5 μl of AVP at 4× final concentration in stimulation buffer. After a 1 hour reaction, detection reagents were added by first an addition of 5 μl EU-cAMP tracer, followed by 5 μl ULight-anti-cAMP both diluted as per the manufacturer's instructions. After a one hour incubation, plates were ready to be read (signals then remained stable for up to 24 hours). Changes in time resolved fluorescence were monitored with excitation via a laser (337 nm) measuring both 615 nm and 665 nm emission wavelengths. […] For compound profiling, test compounds were dispensed by the Labcyte Echo (10-point curve, 1:3 dilutions) in a target 0.1 μl volume then diluted 750-fold in stimulation buffer containing 3% DMSO prior to addition to the cells. At the end of the incubation period, 2.5 μl of AVP in stimulation buffer was added at the previously determined EC80 concentration.
In-plate controls for the assay included a Tolvaptan concentration-response curve as the reference V2 antagonist and an AVP concentration-response curve to confirm the reproducibility of the EC80 used for the compound challenge.

[2] = target: T2, human Oxytocin Receptor (hOTR) (Homo sapiens, UniProt P30559); experiment: Oxytocin receptor (OTR) antagonist assay (FLIPR calcium, CHEM-1-hOTR cells); format: cell-based
T2 construct: host or cells: CHEM-1 (ready-to-assay frozen cells)
T2 sequence (P30559 1-389): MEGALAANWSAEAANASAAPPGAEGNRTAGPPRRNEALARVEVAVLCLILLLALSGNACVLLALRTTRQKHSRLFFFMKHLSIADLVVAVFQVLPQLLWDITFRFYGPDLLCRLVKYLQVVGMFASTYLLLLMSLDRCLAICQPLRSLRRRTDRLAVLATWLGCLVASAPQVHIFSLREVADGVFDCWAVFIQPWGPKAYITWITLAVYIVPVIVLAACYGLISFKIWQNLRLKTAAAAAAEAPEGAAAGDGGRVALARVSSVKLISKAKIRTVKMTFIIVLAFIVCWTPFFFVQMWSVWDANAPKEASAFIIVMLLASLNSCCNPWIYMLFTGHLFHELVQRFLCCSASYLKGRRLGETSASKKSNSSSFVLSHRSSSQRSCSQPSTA
Description: This assay was performed in CHEM-1 cells expressing the human Oxytocin Receptor (hOTR) to determine the inhibitory effect of the compounds of the invention on the human Oxytocin receptor. Oxytocin evokes an increase in intracellular calcium in CHEM-1-hOTR cells which is measured in a fluorescence assay on the FLIPR^TETRA using calcium sensitive dyes. Test compounds were assessed for their ability to affect the magnitude of the response to oxytocin, with antagonists showing a concentration-dependent reduction in the oxytocin-mediated fluorescence.
CHEM-1-hOTR ready was used to assay frozen cells (Eurofins #HTS09ORTA) which are supplied with a proprietary Media Component.
Day 1 of the assay: Cells were thawed in a 37° C. water bath and diluted with the supplied Media Component to a final volume of 10 ml. The cell suspension was centrifuged at 1000 rpm for 3 min at room temperature and the supernatant was discarded. The cell pellet was resuspended in Media Component (10.5 ml) and the cells (25 μL) were dispensed into a poly-D-lysine coated black, clear bottomed, 384-well plate. The plates were incubated overnight at 37° C., 5% CO2.
Day 2: At the start of each assay day the potency of oxytocin was assessed and an EC80 concentration was determined for subsequent compound profiling. Assays were performed using a two-step addition protocol on the FLIPR^TETRA; first addition of 5 μl of control or test compound at 10× final in assay buffer with 15 min incubation at 37° C., 5% CO2 followed by 10 μl of oxytocin at 6× final concentration in assay buffer. Changes in fluorescence were monitored for 3 min after both additions on the FLIPR^TETRA using 470-495 nm excitation and 515-575 nm emission wavelengths. The assay buffer consisted of HBSS (+Ca/+Mg) supplemented with 20 mM HEPES, and for the preparation of the oxytocin agonist only, 0.1% w/v bovine serum albumin. The assay was initiated by the removal of growth media from the cells and replaced with 45 μl of Calcium-6 dye (Molecular Devices) prepared at 1× in assay buffer. Cells were loaded with dye for 60-90 min at 37° C., 5% CO2 before initiation of the FLIPR^TETRA protocol. […] For compound profiling, test compounds were first serially diluted in DMSO (10-point curve, 1:3 dilutions) then diluted 33.3-fold in assay buffer prior to addition to the dye loaded cells on the FLIPR^TETRA. At the end of the incubation period 10 μl of oxytocin in assay buffer containing 0.1% BSA was added at the previously determined EC80 concentration.
In-plate controls for the assay included a L-368,899 concentration-response curve as the reference OTR antagonist and an oxytocin concentration-response curve to confirm the reproducibility of the EC80 used for the compound challenge.

T1 sequence (P30518 whole entry): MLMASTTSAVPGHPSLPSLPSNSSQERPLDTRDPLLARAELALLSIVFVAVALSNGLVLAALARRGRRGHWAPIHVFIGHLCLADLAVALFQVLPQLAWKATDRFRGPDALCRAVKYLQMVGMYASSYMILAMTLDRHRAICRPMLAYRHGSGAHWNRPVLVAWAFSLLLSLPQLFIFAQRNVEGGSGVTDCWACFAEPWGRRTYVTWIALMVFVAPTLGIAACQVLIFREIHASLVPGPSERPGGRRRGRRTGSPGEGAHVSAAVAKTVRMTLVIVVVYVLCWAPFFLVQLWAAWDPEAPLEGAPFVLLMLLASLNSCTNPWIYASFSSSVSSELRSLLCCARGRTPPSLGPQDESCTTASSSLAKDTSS

| Structure (SMILES) | IC50 [1] [nM] | IC50 [2] [nM] |
| --- | --- | --- |
| CC1CN(C(=O)N2CC3(C2)CN(c2ccc(F)cn2)C3)c2ccc(F)cc2O1 (single isomer, unassigned) [9-4-B] | ≥ 1000 | ≥ 1000 |
| CC1COc2cc(F)ccc2N1C(=O)N1CC2(C1)CN(c1ccc(F)cn1)C2 (single isomer, unassigned) [12-1-B] | 100 to 500 | 100 to 500 |
| O=C(N1CC2(C1)CN(c1ccc(F)cn1)C2)N1CCC(O)c2cc(Cl)ccc21 (single isomer, unassigned) [13-1-A] | ≥ 1000 | ≥ 1000 |
| O=C(N1CC2(C1)CN(c1ccccn1)C2)N1CCC(O)c2cc(Cl)ccc21 (single isomer, unassigned) [13-2-A] | ≥ 1000 | 500 to 1000 |
| O=C(N1CC2(C1)CN(c1ccccn1)C2)N1CCC(O)c2cc(Cl)ccc21 (single isomer, unassigned) [13-2-B] | ≥ 1000 | 500 to 1000 |
| O=C(N1CC2(C1)CN(c1cnccn1)C2)N1CCC(O)c2cc(Cl)ccc21 (single isomer, unassigned) [13-3-A] | ≥ 1000 | ≥ 1000 |
| CC1COc2cc(Cl)ccc2N1C(=O)N1CC2(C1)CN(c1noc3cccnc13)C2 (single isomer, unassigned) [18-3-B] | 100 to 500 | ≥ 1000 |
| CC1COc2cc(F)c(F)cc2N1C(=O)N1CC2(C1)CN(c1ncccn1)C2 (single isomer, unassigned) [19-1-B] | ≥ 1000 | ≥ 1000 |
| CC1COc2cc(Cl)c(F)cc2N1C(=O)N1CC2(C1)CN(c1ncccn1)C2 (single isomer, unassigned) [19-2-B] | 100 to 500 | 500 to 1000 |
| CC1COc2cc(Cl)c(F)cc2N1C(=O)N1CC2(C1)CN(c1cccnn1)C2 (single isomer, unassigned) [19-4-A] | ≥ 1000 | 100 to 500 |
| Cc1cncc(N2CC3(CN(C(=O)N4c5ccc(F)cc5OCC4C)C3)C2)n1 (single isomer, unassigned) [20-2-B] | < 100 | 100 to 500 |
| CC1COc2cc(F)ccc2N1C(=O)N1CC2(C1)CN(c1cc(C#N)ccn1)C2 (single isomer, unassigned) [20-3-B] | 100 to 500 | 100 to 500 |
| Cc1ccnc(N2CC3(CN(C(=O)N4c5ccc(F)cc5OCC4C)C3)C2)c1 (single isomer, unassigned) [20-4-B] | < 100 | 500 to 1000 |
| Cc1cnc(N2CC3(CN(C(=O)N4c5ccc(Cl)cc5OCC4C)C3)C2)cn1 (single isomer, unassigned) [20-5-B] | < 100 | 100 to 500 |
| CC1COc2cc(Cl)ccc2N1C(=O)N1CC2(C1)CN(c1cc(C#N)ccn1)C2 (single isomer, unassigned) [20-6-B] | < 100 | < 100 |
| Cc1nc(N2CC3(CN(C(=O)N4c5ccc(Cl)cc5OCC4C)C3)C2)ncc1F (single isomer, unassigned) [20-7-B] | < 100 | 100 to 500 |
| COc1ccnc(N2CC3(CN(C(=O)N4c5ccc(Cl)cc5OCC4C)C3)C2)c1 (single isomer, unassigned) [20-8-B] | < 100 | 100 to 500 |
| COc1ccnc(N2CC3(CN(C(=O)N4c5ccc(Cl)cc5OCC4C)C3)C2)n1 (single isomer, unassigned) [20-9-B] | 100 to 500 | 500 to 1000 |
| Cc1nccnc1N1CC2(CN(C(=O)N3c4ccc(Cl)cc4OCC3C)C2)C1 (single isomer, unassigned) [20-10-A] | 100 to 500 | 100 to 500 |
| Cc1ccnc(N2CC3(CN(C(=O)N4c5ccc(Cl)cc5OCC4C)C3)C2)n1 (single isomer, unassigned) [20-12-B] | < 100 | < 100 |
| O=C(N1CC2(C1)CN(c1cccc(F)n1)C2)N1CCc2cc(Cl)ccc21 [1-78] | ≥ 1000 | ≥ 1000 |
| O=C(N1CC2(C1)CN(c1ccccn1)C2)N1CCOCc2cc(Cl)ccc21 [8-12] | ≥ 1000 | 500 to 1000 |
| O=C(N1CC2(C1)CN(c1cnccn1)C2)N1CCOCc2cc(Cl)ccc21 [8-13] | ≥ 1000 | ≥ 1000 |
